Measured values reported in patent EP1263420B1 (priority 2000, dated 2001).

Tests used:
[1] = Body weight, mortality and toxicity of A/J mice exposed to isotretinoin aerosols; assay type: in vivo
Procedure: Mice were injected with one of three carcinogens and were exposed by inhalation in groups of 21 to three graded concentrations of isotretinoin or vehicle for 10 (urethane-treated mice) or 16 (NNK- and BaP-treated mice) weeks.
Male A/J mice (Jackson Laboratories) 6-8 weeks old were quarantined a minimum of 7 days. […] At 9-10 weeks of age, the mice were administered single 0.2 ml doses (20 mg urethane in saline, 0.6 mg of NNK in saline, or 2 mg of BaP in tricaprylin) by intraperitoneal injection. Daily 45-min exposures to isotretinoin aerosol or vehicle were started the next day.
Solutions were aerosolized using a Pari LC-plus nebulizer (Pari, Richmond, VA). Animals were exposed in nose-only exposure units designed to provide a fresh supply of the test atmosphere to each animal, independent from other animals. […] The units consisted of multi-tier modular sections, each tier containing eight exposure ports located peripherally around a central delivery plenum. During exposures, animals were restrained in unstoppered polycarbonate tubes (C&H Technologies, Westwood, NJ) through which a flow of aerosol, 350-500 ml/min per mouse, passed from the chamber. The tubes were tapered on one end to approximately fit the shape of the animal's head and the diameter of the cylindrical portion of the cone was such that the animals could not turn in the cones. Each cone was fastened to the inhalation chamber with the nose portion of the cone protruding through a gasket into the chamber, permitting the animal to breathe the test or control atmosphere emanating from within the central plenum.

[2] = tested on: RARγ; experiment: RAR induction in lung of A/J mice exposed to isotretinoin aerosols (Western blot); assay type: in vivo; conditions: inhaled mid dose isotretinoin, urethane-treated A/J mice, relative to vehicle-exposed
Procedure: (§1) Antibodies: Polyclonal antibodies to RARα, β and γ (Santa Cruz Biotechnology Inc., San Francisco, CA) were used with a BM Chemiluminescence Western Blotting Kit (Mouse/Rabbit) (Boehringer Mannheim Corporation, Indianapolis).
(§2) Experimental Design: Five lungs each from the urethane-treated vehicle, low dose, and mid dose animals were snap frozen in liquid nitrogen and stored at -70°C for determination of RARs α, β and γ by Western Blot Analysis. In addition, five lungs each from urethane-injected unexposed mice, and untreated control mice were designated for Westerns. The lungs were homogenized and the RARs were determined by standard Western Blotting (21, 22). Due to deaths early in the high dose experiment, no lungs were available for Western Blot Analysis for the high dose exposures, i.e. all tissue was used for lesion quantitation purposes.
(§3) Samples: Lung tissue was collected, frozen on dry ice and kept at -70°C until used. A 500 mg portion was diced in small pieces and homogenized in 300 µl of cold PBS using a hand held homogenizer for 2-3 min. Samples were centrifuged at 500 rpm for 5 min or until the supernatant was clear. The pellet was suspended in 400 µl of cold Buffer A [2 µl 0.5 M EDTA, 10 µl 1 mM EGTA, 50 µl 100 mM PMSF, 10 µl 1M DTT, 10 ml (10 mM HEPES pH 7.9 + 10 mM KCl)], and left at ice temperature for 15 min. A 25 µl volume of 10% solution of NP-40 was added and the samples were mixed in a vortex vigorously for 10 sec. Samples were centrifuged at 14,000 rpm for 1 min at 4°C and the pellet was treated once more in this fashion. The supernatant was removed and 25 - 100 µl of Buffer C [4 µl 0.5 M EDTA, 20 µl 100 mM EGTA, 20 µl 0.1 M PMSF, 2 µl 1 M DTT, 2 ml (20 mM HEPES pH 7.9 + 0.4M NaCl)] was added. Pellets were resuspended by tapping gently on the bottom of the Eppendorf tube. Samples were rocked vigorously in a bucket of ice on an orbitor shaker for 30 min. Samples were centrifuged at 14,000 rpm for 5 min at 4°C. Supematants were kept frozen at -70°C until needed. Protein concentration determination was conducted by the Bradford method (23). […]

[3] = tested on: RARα; experiment: as above; assay type: in vivo; conditions: inhaled mid dose isotretinoin, urethane-treated A/J mice, relative to vehicle-exposed
Procedure: as §1, §2, §3

[4] = tested on: RARβ; experiment: as above; assay type: in vivo; conditions: inhaled mid dose isotretinoin, urethane-treated A/J mice, relative to vehicle-exposed
Procedure: as §1, §2, §3

[5] = tested on: lung metaplasia; conditions: Oral doses of I mg/kg, smokers; cited from earlier work

## CC1=C(/C=C/C(C)=C/C=C/C(C)=C\C(=O)O)C(C)(C)CCC1 [13-cis RA, 13-cis-Retinoic Acid]
[1]; mid dose
  tolerated until (mice began losing weight): ~ 12 wks
[1]; mid dose, NNK- and BaP-treated mice, end of exposure
  weights below those of vehicle controls: 11%
[1]; mouse, in vivo, inhaled or intranasal, 0.081 mg/kg, mid dose (2/63), read-out: mice died before the end of exposure
  mortality: 3%
[1]; mouse, in vivo, inhaled or intranasal, 2 mg/kg, high dose, daily exposures for the first two weeks, read-out: mice died
  mortality at 336 h: ~35%
[2]
  upregulated lung tissue RAR γ over solvent: 3.7 fold
[3]
  upregulated lung tissue RAR α over solvent: 3.9 fold
[4]
  upregulated lung tissue RAR β over solvent: 3.3 fold
[5]
  reversal of lung metaplasia: failed even to reverse lung metaplasia
